± gives the standard deviation of the averaged measurements.
System: HepaRG
Experiment: LDH release cytotoxicity, % of total lysis control; higher = more cytotoxic
Conditions: 48 h
In short: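 On collagen I-coated 96-well plates, single-lot HepaRG cells were exposed for 48 h, in duplicate, to eight-point half-log series of test chemicals beginning at 100 µM. The exposure medium was serum-free induction medium with 0.5% DMSO, and total lysis wells got 0.1% Triton X. Resorufin fluorescence from the CytoTox-ONE reaction, read on a Tecan Safire, reported LDH in 50 µL of spent medium. Percent cytotoxicity came from normalization to on-plate vehicle and total lysis controls, averaged over the duplicates.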

With `OCCOCCOCCO` [Triethylene glycol] the LDH release cytotoxicity (0.03162 µM) was -0.151 ± 1%, the LDH release cytotoxicity (0.1 µM) was -1.04 ± 0.017% and the LDH release cytotoxicity (0.3162278 µM) was -0.871 ± 0.11%. For the same compound, the LDH release cytotoxicity (1 µM) was -1.23 ± 0.56%, the LDH release cytotoxicity (3.16228 µM) was -1.32 ± 0.055% and the LDH release cytotoxicity (10 µM) was -0.871 ± 0.14%. For the same compound, the LDH release cytotoxicity (31.6228 µM) was -1.1 ± 0.18% and the LDH release cytotoxicity (100 µM) was 0.204 ± 0.36%.

For `CON=C(C(=O)OC)c1ccccc1CON=C(C)c1cccc(C(F)(F)F)c1` [Trifloxystrobin], the LDH release cytotoxicity (0.03162 µM) was -0.083 ± 0.59%, the LDH release cytotoxicity (0.1 µM) was -0.478 ± 0.33% and the LDH release cytotoxicity (0.3162278 µM) was -0.545 ± 0.8%. For the same compound, the LDH release cytotoxicity (1 µM) was 0.0357 ± 0.72%, the LDH release cytotoxicity (3.16228 µM) was -0.301 ± 0.36% and the LDH release cytotoxicity (10 µM) was 0.277 ± 0.53%. It also gave an LDH release cytotoxicity (31.6228 µM) of 0.163 ± 1.6% and an LDH release cytotoxicity (100 µM) of 1.57 ± 1.4%.

`COc1cc(OC)nc(NC(=O)NS(=O)(=O)c2ncccc2OCC(F)(F)F)n1` [Trifloxysulfuron-sodium] gave an LDH release cytotoxicity (0.03162 µM) of -1.39 ± 0.15%, an LDH release cytotoxicity (0.1 µM) of -0.662 ± 0.68% and an LDH release cytotoxicity (0.3162278 µM) of -1.7 ± 1.1%. For the same compound, the LDH release cytotoxicity (1 µM) was -1.75 ± 1.3%, the LDH release cytotoxicity (3.16228 µM) was -1.37 ± 0.17% and the LDH release cytotoxicity (10 µM) was -1.12 ± 0.68%. For the same compound, the LDH release cytotoxicity (31.6228 µM) was -1.62 ± 0.26% and the LDH release cytotoxicity (100 µM) was 0.885 ± 0.33%.

`CCCOCC(=Nc1ccc(Cl)cc1C(F)(F)F)n1ccnc1` [Triflumizole] was tested, and the LDH release cytotoxicity (0.03162 µM) was -0.709 ± 0.69%, the LDH release cytotoxicity (0.1 µM) was -1.15 ± 0.39% and the LDH release cytotoxicity (0.3162278 µM) was -0.687 ± 0.077%. For the same compound, the LDH release cytotoxicity (1 µM) was -0.497 ± 0.18%, the LDH release cytotoxicity (3.16228 µM) was -0.543 ± 1% and the LDH release cytotoxicity (10 µM) was -0.414 ± 0.008%. It also gave an LDH release cytotoxicity (31.6228 µM) of -0.332 ± 0.2% and an LDH release cytotoxicity (100 µM) of 0.335 ± 0.21%.

`CCCN(CCC)c1c([N+](=O)[O-])cc(C(F)(F)F)cc1[N+](=O)[O-]` [Trifluralin] showed an LDH release cytotoxicity (0.03162 µM) of -4.73 ± 0.13%, an LDH release cytotoxicity (0.1 µM) of -5.31 ± 0.81% and an LDH release cytotoxicity (0.3162278 µM) of -5.66 ± 0.27%. For the same compound, the LDH release cytotoxicity (1 µM) was -6.43 ± 1.1%, the LDH release cytotoxicity (3.16228 µM) was -5.85 ± 1.3% and the LDH release cytotoxicity (10 µM) was -6.17 ± 0.86%. For the same compound, the LDH release cytotoxicity (31.6228 µM) was -2.1 ± 0.44% and the LDH release cytotoxicity (100 µM) was 66.3 ± 2.5%.

In the case of `CC(C)CCCCCCOC(=O)c1ccc(C(=O)OCCCCCCC(C)C)c(C(=O)OCCCCCCC(C)C)c1` [Triisononyl trimellitate], the LDH release cytotoxicity (0.031623 µM) is reported as -0.391 ± 0.73%, the LDH release cytotoxicity (0.1 µM) is reported as -0.474 ± 2.8% and the LDH release cytotoxicity (0.316228 µM) is reported as -1.59 ± 0.86%. The LDH release cytotoxicity (1 µM) was -2.21 ± 1.3%, the LDH release cytotoxicity (3.16228 µM) was -2.67 ± 0.91% and the LDH release cytotoxicity (10 µM) was -1.83 ± 1.2%. The LDH release cytotoxicity (31.6228 µM) was -0.993 ± 1.1% and the LDH release cytotoxicity (100 µM) was 0.476 ± 0.49%.

With `O=P(Oc1ccccc1)(Oc1ccccc1)Oc1ccccc1` [Triphenyl phosphate] the LDH release cytotoxicity (0.03162 µM) was 0.948 ± 2%, the LDH release cytotoxicity (0.1 µM) was -1.27 ± 1.3% and the LDH release cytotoxicity (0.3162278 µM) was -1.47 ± 0.34%. It also gave an LDH release cytotoxicity (1 µM) of -1.41 ± 0.43%, an LDH release cytotoxicity (3.16228 µM) of -0.353 ± 0.53% and an LDH release cytotoxicity (10 µM) of 0.138 ± 0.49%. It also gave an LDH release cytotoxicity (31.6228 µM) of 2.03 ± 0.5% and an LDH release cytotoxicity (100 µM) of 27.1 ± 4.3%.

In the case of `c1ccc(OP(Oc2ccccc2)Oc2ccccc2)cc1` [Triphenyl phosphite], the LDH release cytotoxicity (0.03162 µM) is reported as -1.51 ± 2.2%, the LDH release cytotoxicity (0.1 µM) is reported as -1.17 ± 0.097% and the LDH release cytotoxicity (0.3162278 µM) is reported as -1.23 ± 0.038%. It also gave an LDH release cytotoxicity (1 µM) of -1.46 ± 0.046%, an LDH release cytotoxicity (3.16228 µM) of -0.429 ± 0.71% and an LDH release cytotoxicity (10 µM) of -1.22 ± 0.2%. For the same compound, the LDH release cytotoxicity (31.6228 µM) was -1.26 ± 0.45% and the LDH release cytotoxicity (100 µM) was 1.56 ± 0.67%.

For `[OH-].c1cc[c]([Sn+]([c]2ccccc2)[c]2ccccc2)cc1` [Triphenyltin hydroxide], the LDH release cytotoxicity (0.03162 µM) was -0.226 ± 1.2%, the LDH release cytotoxicity (0.1 µM) was -1.04 ± 0.92% and the LDH release cytotoxicity (0.3162278 µM) was -0.513 ± 0.71%. For the same compound, the LDH release cytotoxicity (1 µM) was 46.3 ± 2.9%, the LDH release cytotoxicity (3.16228 µM) was 68.1 ± 5.3% and the LDH release cytotoxicity (10 µM) was 57.1 ± 7.2%. It also gave an LDH release cytotoxicity (31.6228 µM) of 63.5 ± 2.9% and an LDH release cytotoxicity (100 µM) of 64.4 ± 3.7%.

`COCC(C)OCC(C)OCC(C)O` (centres undefined) [Tripropylene glycol monomethyl ether] gave an LDH release cytotoxicity (0.03162 µM) of -2.65 ± 0.75%, an LDH release cytotoxicity (0.1 µM) of -2.37 ± 0.59% and an LDH release cytotoxicity (0.3162278 µM) of -2.65 ± 0.77%. It also gave an LDH release cytotoxicity (1 µM) of -3.43 ± 0.28%, an LDH release cytotoxicity (3.16228 µM) of -2.88 ± 0.31% and an LDH release cytotoxicity (10 µM) of -1.77 ± 1%. The LDH release cytotoxicity (31.6228 µM) was -1.51 ± 0.6% and the LDH release cytotoxicity (100 µM) was 0.876 ± 1.4%.

In the case of `O=P(OC(CCl)CCl)(OC(CCl)CCl)OC(CCl)CCl` [Tris(1,3-dichloro-2-propyl) phosphate], the LDH release cytotoxicity (0.03162 µM) is reported as 0.268 ± 1.8%, the LDH release cytotoxicity (0.1 µM) is reported as -1.46 ± 0.26% and the LDH release cytotoxicity (0.3162278 µM) is reported as -0.407 ± 0.3%. It also gave an LDH release cytotoxicity (1 µM) of -1.12 ± 0.76%, an LDH release cytotoxicity (3.16228 µM) of -0.951 ± 0.83% and an LDH release cytotoxicity (10 µM) of -0.799 ± 0.15%. The LDH release cytotoxicity (31.6228 µM) was 0.114 ± 0.25% and the LDH release cytotoxicity (100 µM) was 9.87 ± 0.53%.

For `O=c1n(CC2CO2)c(=O)n(CC2CO2)c(=O)n1CC1CO1` (centres undefined) [Tris(2,3-epoxypropyl)isocyanurate], the LDH release cytotoxicity (0.03162 µM) was 0.512 ± 0.2%, the LDH release cytotoxicity (0.1 µM) was 0.218 ± 0.46% and the LDH release cytotoxicity (0.3162278 µM) was 0.217 ± 0.89%. For the same compound, the LDH release cytotoxicity (1 µM) was 0.322 ± 0.34%, the LDH release cytotoxicity (3.16228 µM) was -0.576 ± 0.33% and the LDH release cytotoxicity (10 µM) was 0.383 ± 0.033%. The LDH release cytotoxicity (31.6228 µM) was 0.616 ± 0.68% and the LDH release cytotoxicity (100 µM) was 1.86 ± 0.47%.

Compound `O=P(OCCCl)(OCCCl)OCCCl` [Tris(2-chloroethyl) phosphate] has an LDH release cytotoxicity (0.03162 µM) of 0.00945 ± 0.48%, an LDH release cytotoxicity (0.1 µM) of -0.629 ± 0.15% and an LDH release cytotoxicity (0.3162278 µM) of -0.615 ± 0.025%. The LDH release cytotoxicity (1 µM) was -1.15 ± 0.9%, the LDH release cytotoxicity (3.16228 µM) was -0.623 ± 0.18% and the LDH release cytotoxicity (10 µM) was -0.4 ± 0.39%. For the same compound, the LDH release cytotoxicity (31.6228 µM) was 0.187 ± 0.64% and the LDH release cytotoxicity (100 µM) was 0.367 ± 0.4%.

With `CCCCC(CC)COP(=O)(OCC(CC)CCCC)OCC(CC)CCCC` (centres undefined) [Tris(2-ethylhexyl) phosphate] the LDH release cytotoxicity (0.03162 µM) was -1.762 ± 0.016%, the LDH release cytotoxicity (0.1 µM) was -1.14 ± 0.93% and the LDH release cytotoxicity (0.3162278 µM) was -1.21 ± 1.2%. The LDH release cytotoxicity (1 µM) was -1.28 ± 1.1%, the LDH release cytotoxicity (3.16228 µM) was -1.23 ± 0.96% and the LDH release cytotoxicity (10 µM) was -1.26 ± 1.1%. For the same compound, the LDH release cytotoxicity (31.6228 µM) was -0.783 ± 1.4% and the LDH release cytotoxicity (100 µM) was 0.473 ± 0.56%.

`CCCCC(CC)COC(=O)c1ccc(C(=O)OCC(CC)CCCC)c(C(=O)OCC(CC)CCCC)c1` (centres undefined) [Tris(2-ethylhexyl) trimellitate] gave an LDH release cytotoxicity (0.03162 µM) of -1.9 ± 0.9%, an LDH release cytotoxicity (0.1 µM) of -0.779 ± 0.11% and an LDH release cytotoxicity (0.3162278 µM) of -1.6 ± 0.82%. The LDH release cytotoxicity (1 µM) was -0.598 ± 1.5%, the LDH release cytotoxicity (3.16228 µM) was -1.18 ± 0.4% and the LDH release cytotoxicity (10 µM) was -0.738 ± 0.28%. For the same compound, the LDH release cytotoxicity (31.6228 µM) was -0.634 ± 0.44% and the LDH release cytotoxicity (100 µM) was 5.97 ± 0.36%.

Compound `CC1(C)CCC(=Cc2ccc(Cl)cc2)C1(O)Cn1cncn1` (centres undefined) [Triticonazole] has an LDH release cytotoxicity (0.0314647 µM) of -0.271 ± 1.9%, an LDH release cytotoxicity (0.0995 µM) of -0.849 ± 0.067% and an LDH release cytotoxicity (0.3146466 µM) of -0.205 ± 0.74%. For the same compound, the LDH release cytotoxicity (0.995 µM) was -1.22 ± 0.81%, the LDH release cytotoxicity (3.14647 µM) was -0.364 ± 0.038% and the LDH release cytotoxicity (9.95 µM) was 0.229 ± 0.84%. It also gave an LDH release cytotoxicity (31.4647 µM) of 1.76 ± 0.041% and an LDH release cytotoxicity (99.5 µM) of 5.55 ± 0.43%.

For `Cc1c(C)c2c(c(C)c1O)CCC(C)(COc1ccc(CC3SC(=O)NC3=O)cc1)O2` (centres undefined) [Troglitazone], the LDH release cytotoxicity (0.03162 µM) was -0.878 ± 0.32%, the LDH release cytotoxicity (0.1 µM) was -0.342 ± 0.96% and the LDH release cytotoxicity (0.3162278 µM) was -1.04 ± 0.091%. It also gave an LDH release cytotoxicity (1 µM) of -0.379 ± 0.37%, an LDH release cytotoxicity (3.16228 µM) of -0.376 ± 0.74% and an LDH release cytotoxicity (10 µM) of -1.1 ± 0.028%. For the same compound, the LDH release cytotoxicity (31.6228 µM) was 8.12 ± 13% and the LDH release cytotoxicity (100 µM) was 62.4 ± 2.7%.

`CCCCCCCCCCC` [Undecane] gave an LDH release cytotoxicity (0.031623 µM) of -1.34 ± 0.15%, an LDH release cytotoxicity (0.1 µM) of -0.1 ± 0.21% and an LDH release cytotoxicity (0.316228 µM) of -2.37 ± 1.8%. The LDH release cytotoxicity (1 µM) was -2.3 ± 0.12%, the LDH release cytotoxicity (3.16228 µM) was -2.08 ± 1.2% and the LDH release cytotoxicity (10 µM) was -0.723 ± 1.2%. The LDH release cytotoxicity (31.6228 µM) was -0.989 ± 1.3% and the LDH release cytotoxicity (100 µM) was 1.06 ± 0.61%.
